Test results as given in US20140094424A1, “MICROBICIDAL COMPOSITIONS AND METHODS OF PRODUCTION USE THEREOF” (priority 2011, published 2014).

Columns and labels:
Assay in all cases: MBC (minimum bactericidal concentration) test in Wash NEXT reagent
Format in all cases: cell-based
[1] = test system: Pseudomonas aeruginosa (L)
Method: (§1) The stock organisms were thawed and subbed prior to beginning the MBC test. Molds were subbed to SDA plates one week before, and the bacteria were subbed to TAT agar plates 24 hours prior to the start of the test. All plates were incubated at 32 degrees C.
(§2) Each bacterial organism was inoculated into 40 ml sterile saline in a centrifuge tube to create a density of MacFarland #1. Two serial dilutions of 1:100 were then made, resulting in 10^−2 and 10^−4 concentrations. Each dilution was vortexed before it was sampled, and sterile Eppendorf pipette tips were used to make each transfer. The 10^−4 dilution was spiral plated to yield the initial inoculum concentration.
(§3) MBC trays were set up with the prepared test reagent. Using a Matrix pipettor, 100 μl aliquots of reagent were distributed into the wells, diluting the amount of preservative from 100% to 10% increments, using unpreserved reagent as the diluent. In one row, 100% non-preserved reagent acted as a positive control and served as a benchmark for a full mat of growth. In well #12H, 100 μl unpreserved reagent was pipetted, and this well was not inoculated with organisms, as it served as the negative control. Once all of the trays were prepared, the prepared bacteria/mold suspensions were poured into the MBC inoculating trays. These were placed onto the reagent trays, and 0.01 ml inoculum was introduced into the 100 μl of reagent in each well.
(§4) This was done by dipping a sterile cotton swab into each well, and absorbing all of the liquid in the well. The swab was rolled onto a TAT agar plate ensuring that the entire swab touches the agar. Plates ware incubated at 32 degrees C. for 48 hours to 7 days, depending on the organism. Observations for growth were performed by a scoring matrix using + for a full mat, +/− for some growth, a numerical value for an actual colony count, and—for no growth.
(§5) Below are tables that contain the data obtained in Example 1. The MBC test is scored by (+) indicating a full grown mat of organisms, equivalent to the organisms in the unpreserved reagent. (+/−) indicates there is some kill evident disturbing that mat or bringing the quantities down to an almost countable level. An actual number is the actual number of colonies growing at that concentration of preservative. (−) indicates no growth found. The MBC trays were stored at room temperature for the entire test.
(§6) The materials and methods and analysis of the MBC test were the same as in Example 1.

[2] = test system: Pseudomonas fluorescens (D)
Method: as §1, §2, §3, §4, §5, §6

Pseudomonas putida (K) = test system: Pseudomonas putida (K)
Method: as §1, §2, §3, §4, §5, §6

Structure (SMILES): Cc1cc(NS(=O)(=O)c2ccc(N)cc2)no1 [Sulfamethoxazole, sulfamethoxazole]
- MBC test growth score ([1]; 10% preservative, 8 hour): +
- MBC test growth score ([1]; 10% preservative, 24 hour): +
- MBC test growth score ([1]; 10% preservative, 48 hour): +
- MBC test growth score ([1]; 10% preservative, 72 hour): +
- MBC test growth score ([1]; 20% preservative, 8 hour): +
- MBC test growth score ([1]; 20% preservative, 24 hour): +
- MBC test growth score ([1]; 20% preservative, 48 hour): +
- MBC test growth score ([1]; 20% preservative, 72 hour): +
- MBC test growth score ([1]; 30% preservative, 8 hour): +
- MBC test growth score ([1]; 30% preservative, 24 hour): +
- MBC test growth score ([1]; 30% preservative, 48 hour): +
- MBC test growth score ([1]; 30% preservative, 72 hour): +
- MBC test growth score ([1]; 40% preservative, 8 hour): +
- MBC test growth score ([1]; 40% preservative, 24 hour): +
- MBC test growth score ([1]; 40% preservative, 48 hour): +
- MBC test growth score ([1]; 40% preservative, 72 hour): +
- MBC test growth score ([1]; 50% preservative, 8 hour): +
- MBC test growth score ([1]; 50% preservative, 24 hour): +
- MBC test growth score ([1]; 50% preservative, 48 hour): +
- MBC test growth score ([1]; 50% preservative, 72 hour): +
- MBC test growth score ([1]; 60% preservative, 8 hour): +
- MBC test growth score ([1]; 60% preservative, 24 hour): +
- MBC test growth score ([1]; 60% preservative, 48 hour): +
- MBC test growth score ([1]; 60% preservative, 72 hour): +
- MBC test growth score ([1]; 70% preservative, 8 hour): +
- MBC test growth score ([1]; 70% preservative, 24 hour): +
- MBC test growth score ([1]; 70% preservative, 48 hour): +
- MBC test growth score ([1]; 70% preservative, 72 hour): +
- MBC test growth score ([1]; 80% preservative, 8 hour): +
- MBC test growth score ([1]; 80% preservative, 24 hour): +
- MBC test growth score ([1]; 80% preservative, 48 hour): +
- MBC test growth score ([1]; 80% preservative, 72 hour): +
- MBC test growth score ([1]; 90% preservative, 8 hour): +
- MBC test growth score ([1]; 90% preservative, 24 hour): +
- MBC test growth score ([1]; 90% preservative, 48 hour): +
- MBC test growth score ([1]; 90% preservative, 72 hour): +
- MBC test growth score ([1]; 100% preservative, 8 hour): +
- MBC test growth score ([1]; 100% preservative, 24 hour): +
- MBC test growth score ([1]; 100% preservative, 48 hour): +
- MBC test growth score ([1]; 100% preservative, 72 hour): +
- MBC test growth score ([2]; 10% preservative, 8 hour): +
- MBC test growth score ([2]; 10% preservative, 24 hour): +
- MBC test growth score ([2]; 10% preservative, 48 hour): +/−
- MBC test growth score ([2]; 10% preservative, 72 hour): +/−
- MBC test growth score ([2]; 20% preservative, 8 hour): +
- MBC test growth score ([2]; 20% preservative, 24 hour): +
- MBC test growth score ([2]; 20% preservative, 48 hour): +/−
- MBC test growth score ([2]; 20% preservative, 72 hour): +/−
- MBC test growth score ([2]; 30% preservative, 8 hour): +
- MBC test growth score ([2]; 30% preservative, 24 hour): +
- MBC test growth score ([2]; 30% preservative, 48 hour): +
- MBC test growth score ([2]; 30% preservative, 72 hour): +/−
- MBC test growth score ([2]; 40% preservative, 8 hour): +
- MBC test growth score ([2]; 40% preservative, 24 hour): +
- MBC test growth score ([2]; 40% preservative, 48 hour): +
- MBC test growth score ([2]; 40% preservative, 72 hour): +/−
- MBC test growth score ([2]; 50% preservative, 8 hour): +
- MBC test growth score ([2]; 50% preservative, 24 hour): +
- MBC test growth score ([2]; 50% preservative, 48 hour): +
- MBC test growth score ([2]; 50% preservative, 72 hour): +/−
- MBC test growth score ([2]; 60% preservative, 8 hour): +
- MBC test growth score ([2]; 60% preservative, 24 hour): +
- MBC test growth score ([2]; 60% preservative, 48 hour): +
- MBC test growth score ([2]; 60% preservative, 72 hour): +/−
- MBC test growth score ([2]; 70% preservative, 8 hour): +
- MBC test growth score ([2]; 70% preservative, 24 hour): +
- MBC test growth score ([2]; 70% preservative, 48 hour): +
- MBC test growth score ([2]; 70% preservative, 72 hour): +/−
- MBC test growth score ([2]; 80% preservative, 8 hour): +
- MBC test growth score ([2]; 80% preservative, 24 hour): +
- MBC test growth score ([2]; 80% preservative, 48 hour): +
- MBC test growth score ([2]; 80% preservative, 72 hour): +/−
- MBC test growth score ([2]; 90% preservative, 8 hour): +
- MBC test growth score ([2]; 90% preservative, 24 hour): +
- MBC test growth score ([2]; 90% preservative, 48 hour): +
- MBC test growth score ([2]; 90% preservative, 72 hour): +/−
- MBC test growth score ([2]; 100% preservative, 8 hour): +
- MBC test growth score ([2]; 100% preservative, 24 hour): +
- MBC test growth score ([2]; 100% preservative, 48 hour): +
- MBC test growth score ([2]; 100% preservative, 72 hour): +/−
- MBC test growth score (Pseudomonas putida (K); 10% preservative, 8 hour): +
- MBC test growth score (Pseudomonas putida (K); 10% preservative, 24 hour): 2
- MBC test growth score (Pseudomonas putida (K); 10% preservative, 48 hour): +/−
- MBC test growth score (Pseudomonas putida (K); 10% preservative, 72 hour): +/−
- MBC test growth score (Pseudomonas putida (K); 20% preservative, 8 hour): +
- MBC test growth score (Pseudomonas putida (K); 20% preservative, 24 hour): +/−
- MBC test growth score (Pseudomonas putida (K); 20% preservative, 48 hour): +/−
- MBC test growth score (Pseudomonas putida (K); 20% preservative, 72 hour): −
- MBC test growth score (Pseudomonas putida (K); 30% preservative, 8 hour): +
- MBC test growth score (Pseudomonas putida (K); 30% preservative, 24 hour): +/−
- MBC test growth score (Pseudomonas putida (K); 30% preservative, 48 hour): 22
- MBC test growth score (Pseudomonas putida (K); 30% preservative, 72 hour): −
- MBC test growth score (Pseudomonas putida (K); 40% preservative, 8 hour): +
- MBC test growth score (Pseudomonas putida (K); 40% preservative, 24 hour): +/−
- MBC test growth score (Pseudomonas putida (K); 40% preservative, 48 hour): 20
- MBC test growth score (Pseudomonas putida (K); 40% preservative, 72 hour): −
- MBC test growth score (Pseudomonas putida (K); 50% preservative, 8 hour): +
- MBC test growth score (Pseudomonas putida (K); 50% preservative, 24 hour): +/−
- MBC test growth score (Pseudomonas putida (K); 50% preservative, 72 hour): −
- MBC test growth score (Pseudomonas putida (K); 60% preservative, 8 hour): +
- MBC test growth score (Pseudomonas putida (K); 60% preservative, 24 hour): +/−
- MBC test growth score (Pseudomonas putida (K); 60% preservative, 48 hour): 18
- MBC test growth score (Pseudomonas putida (K); 60% preservative, 72 hour): −
- MBC test growth score (Pseudomonas putida (K); 70% preservative, 8 hour): +
- MBC test growth score (Pseudomonas putida (K); 70% preservative, 24 hour): +
- MBC test growth score (Pseudomonas putida (K); 70% preservative, 48 hour): −
- MBC test growth score (Pseudomonas putida (K); 70% preservative, 72 hour): −
- MBC test growth score (Pseudomonas putida (K); 80% preservative, 8 hour): +
- MBC test growth score (Pseudomonas putida (K); 80% preservative, 24 hour): +
- MBC test growth score (Pseudomonas putida (K); 80% preservative, 48 hour): −
- MBC test growth score (Pseudomonas putida (K); 80% preservative, 72 hour): −
- MBC test growth score (Pseudomonas putida (K); 90% preservative, 8 hour): +
- MBC test growth score (Pseudomonas putida (K); 90% preservative, 24 hour): +
- MBC test growth score (Pseudomonas putida (K); 90% preservative, 48 hour): −
- MBC test growth score (Pseudomonas putida (K); 90% preservative, 72 hour): −
- MBC test growth score (Pseudomonas putida (K); 100% preservative, 8 hour): +
- MBC test growth score (Pseudomonas putida (K); 100% preservative, 24 hour): +
- MBC test growth score (Pseudomonas putida (K); 100% preservative, 48 hour): −
- MBC test growth score (Pseudomonas putida (K); 100% preservative, 72 hour): −
